Measured values as given in US12655116B2, “Substituted isophthalic acid diamides” (Bayer Aktiengesellschaft, priority 2020, dated 2026).

Tests used:
[1] = test system: SETVI; test: Pre-emergence herbicidal action against SETVI; type: in vivo, Setaria viridis; details: Setaria viridis, 504 h; for pest or weed control at 80 g/ha: dosage 80 g/ha; for pest or weed control at 320 g/ha: dosage 320 g/ha
In short: (§1)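 Pre-emergence soil-surface spray of formulated compound (WP or EC; 600 to 800 l/ha; 0.2% wetting agent) over seeds sown in sandy loam. After 3 weeks under greenhouse conditions, damage is estimated visually in percent against untreated plants.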

[2] = test system: AMARE; test: Pre-emergence herbicidal action against AMARE; type: in vivo, Amaranthus retroflexus; details: Amaranthus retroflexus, 504 h, 100% = plants have died, 0% = like control plants; for pest or weed control at 320 g/ha: scored visually after 3 weeks
In short: as §1

[3] = test system: ALOMY; test: Pre-emergence herbicidal action against ALOMY; type: in vivo, Alopecurus myosuroides; details: Alopecurus myosuroides, 504 h, pre-emergence; for pest or weed control at 80 g/ha: scored visually after 3 weeks vs untreated controls (100% = plants have died, 0% = like control plants)
In short: as §1

[4] = test system: ECHCG; test: Post-emergence herbicidal action against ECHCG; type: in vivo, Echinochloa crus-galli; details: Echinochloa crus-galli, 504 h; for pest or weed control at 20 g/ha: dosage 20 g/ha; for pest or weed control at 80 g/ha: dosage 80 g/ha
In short: (§2)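 Spray, one-leaf stage: WP or EC compound in water, 600–800 l/ha, 0.2% wetting agent. Plants held about 3 weeks in the greenhouse, then visually rated in percent of kill compared with untreated controls.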

[5] = test system: ABUTH; test: Pre-emergence herbicidal action against ABUTH; type: in vivo, Abutilon theophrasti; details: Abutilon theophrasti, 504 h; for pest or weed control at 80 g/ha: scored visually after 3 weeks vs untreated controls (100% = plants have died, 0% = like control plants); for pest or weed control at 320 g/ha: Dosage: 320 g/ha, scored visually after 3 weeks
In short: as §1

[6] = test system: LOLRI; test: Post-emergence herbicidal action against LOLRI; type: in vivo, Lolium rigidum; details: Lolium rigidum, 504 h; for pest or weed control at 80 g/ha: dosage 80 g/ha
In short: as §2

[7] = test system: STEME; test: Post-emergence herbicidal action against STEME; type: in vivo, Stellaria media; details: Stellaria media, 504 h
In short: as §2

[8] = test system: PHBPU; test: Post-emergence herbicidal action against PHBPU; type: in vivo, Pharbitis purpurea; details: Ipomoea purpurea, 504 h; for pest or weed control at 20 g/ha: dosage 20 g/ha; for pest or weed control at 80 g/ha: dosage 80 g/ha
In short: as §2

[9] = test system: LOLRI; test: Pre-emergence herbicidal action against LOLRI; type: in vivo, Lolium rigidum; details: Lolium rigidum, 504 h
In short: as §1

[10] = test system: MATIN; test: Post-emergence herbicidal action against MATIN; type: in vivo, Matricaria inodora; details: Tripleurospermum inodorum, 504 h; for pest or weed control at 20 g/ha: dosage 20 g/ha; for pest or weed control at 80 g/ha: dosage 80 g/ha
In short: as §2

[11] = test system: MATIN; test: Pre-emergence herbicidal action against MATIN; type: in vivo, Matricaria inodora; details: Tripleurospermum inodorum, 504 h; for pest or weed control at 80 g/ha: dosage 80 g/ha; for pest or weed control at 320 g/ha: dosage 320 g/ha
In short: as §1

[12] = test system: AMARE; test: Post-emergence herbicidal action against AMARE; type: in vivo, Amaranthus retroflexus; details: Amaranthus retroflexus, 504 h, visual assessment about 3 weeks after treatment, 100% = plants have died, 0% = like control plants
In short: as §2

[13] = test system: AVEFA; test: Pre-emergence herbicidal action against AVEFA; type: in vivo, Avena fatua; details: Avena fatua, 504 h, pre-emergence
In short: as §1

[14] = test system: AVEFA; test: Post-emergence herbicidal action against AVEFA; type: in vivo, Avena fatua; details: Avena fatua, 504 h, visual assessment about 3 weeks after treatment, 100% = plants have died, 0% = like control plants
In short: as §2

[15] = test system: VIOTR; test: Pre-emergence herbicidal action against VIOTR; type: in vivo, Viola tricolor; details: Viola tricolor, 504 h; for pest or weed control at 80 g/ha: dosage 80 g/ha; for pest or weed control at 320 g/ha: dosage 320 g/ha
In short: as §1

[16] = test system: VERPE; test: Post-emergence herbicidal action against VERPE; type: in vivo, Veronica persica; details: Veronica persica, 504 h
In short: as §2

[17] = test system: STEME; test: Pre-emergence herbicidal action against STEME; type: in vivo, Stellaria media; details: Stellaria media, 504 h; for pest or weed control at 80 g/ha: dosage 80 g/ha; for pest or weed control at 320 g/ha: dosage 320 g/ha
In short: as §1

[18] = test system: ECHCG; test: Pre-emergence herbicidal action against ECHCG; type: in vivo, Echinochloa crus-galli; details: Echinochloa crus-galli, 504 h
In short: as §1

[19] = test system: VERPE; test: Pre-emergence herbicidal action against VERPE; type: in vivo, Veronica persica; details: Veronica persica, 504 h; for pest or weed control at 320 g/ha: dosage 320 g/ha
In short: as §1

[20] = test system: HORMU; test: Pre-emergence herbicidal action against HORMU; type: in vivo, Hordeum murinum; details: Hordeum murinum, 504 h, pre-emergence
In short: as §1

[21] = test system: HORMU; test: Post-emergence herbicidal action against HORMU; type: in vivo, Hordeum murinum; details: Hordeum murinum, 504 h; for pest or weed control at 20 g/ha: dosage 20 g/ha; for pest or weed control at 80 g/ha: dosage 80 g/ha
In short: as §2

[22] = test system: POLCO; test: Post-emergence herbicidal action against POLCO; type: in vivo, Polygonum convolvulus; details: Fallopia convolvulus, 504 h; for pest or weed control at 80 g/ha: dosage 80 g/ha
In short: as §2

[23] = test system: VIOTR; test: Post-emergence herbicidal action against VIOTR; type: in vivo, Viola tricolor; details: Viola tricolor, 504 h
In short: as §2

[24] = scored visually after 3 weeks vs untreated controls
[25] = 20 g/ha, scored visually after 3 weeks, 100% = plants have died, 0% = like control plants
[26] = scored visually after 3 weeks, 100% = plants have died, 0% = like control plants
[27] = 100% = plants have died, 0% = like control plants

`CNC(=O)c1c(C(F)(F)F)ccc(C(=O)Nc2nnnn2C)c1Cl` [Example 1-129] was tested, and the pest or weed control at 80 g/ha [1] was 100%, the pest or weed control at 320 g/ha [1] was 100% and the pest or weed control at 20 g/ha ([2]; 20 g/ha, scored visually after 3 weeks vs untreated controls) was 100%. For the same molecule, the pest or weed control at 80 g/ha [2, 24] was 100%, the pest or weed control at 320 g/ha [2] was 100% and the pest or weed control at 80 g/ha [3] was 100%. It also gave a pest or weed control at 20 g/ha [3, 25] of 90%, a pest or weed control at 320 g/ha [3, 26] of 100% and a pest or weed control at 5 g/ha ([4]; dosage 5 g/ha) of 100%. It also gave a pest or weed control at 20 g/ha [4] of 100%, a pest or weed control at 80 g/ha [4] of 100% and a pest or weed control at 80 g/ha [5] of 100%. It also gave a pest or weed control at 320 g/ha [5, 27] of 100%, a pest or weed control at 20 g/ha ([5]; dosage 20 g/ha, scored visually after 3 weeks vs untreated controls, 100% = plants have died, 0% = like control plants, read-out: Pre-emergence action against ABUTH (herbicidal activity in percent)) of 100% and a pest or weed control at 5 g/ha ([6]; dosage 5 g/ha) of 80%. It also gave a pest or weed control at 20 g/ha ([6]; dosage 20 g/ha) of 100%, a pest or weed control at 80 g/ha [6] of 100% and a pest or weed control at 20 g/ha [7] of 100%. It also gave a pest or weed control at 80 g/ha [7] of 100%, a pest or weed control at 5 g/ha ([7]; dosage 5 g/ha) of 100% and a pest or weed control at 5 g/ha ([8]; dosage 5 g/ha) of 80%. It also gave a pest or weed control at 20 g/ha [8] of 100%, a pest or weed control at 80 g/ha [8] of 100% and a pest or weed control at 80 g/ha ([9]; 80 g/ha) of 90%. It also gave a pest or weed control at 320 g/ha [9] of 100%, a pest or weed control at 20 g/ha [10] of 90% and a pest or weed control at 80 g/ha [10] of 100%. The pest or weed control at 20 g/ha ([11]; dosage 20 g/ha) was 100%, the pest or weed control at 80 g/ha [11] was 100% and the pest or weed control at 320 g/ha [11] was 100%. The pest or weed control at 20 g/ha [12] was 100%, the pest or weed control at 80 g/ha [12] was 100% and the pest or weed control at 80 g/ha [13] was 100%. For the same molecule, the pest or weed control at 20 g/ha [13, 25] was 100%, the pest or weed control at 320 g/ha [13, 26] was 100% and the pest or weed control at 20 g/ha [14] was 100%. It also gave a pest or weed control at 80 g/ha [14] of 100%, a pest or weed control at 20 g/ha ([15]; dosage 20 g/ha) of 100% and a pest or weed control at 80 g/ha [15] of 100%. It also gave a pest or weed control at 320 g/ha [15] of 100%, a pest or weed control at 5 g/ha ([16]; 5 g/ha) of 80% and a pest or weed control at 20 g/ha [16] of 80%. The pest or weed control at 80 g/ha [16] was 100%, the pest or weed control at 20 g/ha ([17]; dosage 20 g/ha) was 100% and the pest or weed control at 80 g/ha [17] was 100%. For the same molecule, the pest or weed control at 320 g/ha [17] was 100%, the pest or weed control at 20 g/ha ([18]; 20 g/ha) was 80% and the pest or weed control at 80 g/ha [18] was 100%. It also gave a pest or weed control at 320 g/ha [18] of 100%, a pest or weed control at 80 g/ha ([19]; dosage 80 g/ha) of 100% and a pest or weed control at 320 g/ha [19] of 100%. It also gave a pest or weed control at 80 g/ha [20] of 90%, a pest or weed control at 320 g/ha [20] of 100% and a pest or weed control at 5 g/ha ([21]; dosage 5 g/ha) of 90%. For the same molecule, the pest or weed control at 20 g/ha [21] was 100%, the pest or weed control at 80 g/ha [21] was 100% and the pest or weed control at 80 g/ha [22] was 100%. For the same molecule, the pest or weed control at 5 g/ha ([23]; 5 g/ha) was 80%, the pest or weed control at 20 g/ha ([23]; 20 g/ha) was 100% and the pest or weed control at 80 g/ha [23] was 100%.

For `CNC(=O)c1c(C(F)F)ccc(C(=O)Nc2nnnn2C)c1Cl` [Example 1-147], the pest or weed control at 80 g/ha [1] was 100%, the pest or weed control at 320 g/ha [1] was 100% and the pest or weed control at 80 g/ha [2, 24] was 100%. The pest or weed control at 320 g/ha [2] was 100%, the pest or weed control at 80 g/ha [3] was 90% and the pest or weed control at 320 g/ha [3, 26] was 100%. For the same molecule, the pest or weed control at 20 g/ha [4] was 90%, the pest or weed control at 80 g/ha [4] was 90% and the pest or weed control at 80 g/ha [5] was 90%. The pest or weed control at 320 g/ha [5, 27] was 100%, the pest or weed control at 80 g/ha [6] was 90% and the pest or weed control at 20 g/ha [7] was 80%. It also gave a pest or weed control at 80 g/ha [7] of 90%, a pest or weed control at 20 g/ha [8] of 80% and a pest or weed control at 80 g/ha [8] of 90%. It also gave a pest or weed control at 320 g/ha [9] of 100%, a pest or weed control at 20 g/ha [10] of 100% and a pest or weed control at 80 g/ha [10] of 100%. The pest or weed control at 80 g/ha [11] was 90%, the pest or weed control at 320 g/ha [11] was 100% and the pest or weed control at 20 g/ha [12] was 90%. The pest or weed control at 80 g/ha [12] was 90%, the pest or weed control at 80 g/ha [13] was 100% and the pest or weed control at 320 g/ha [13, 26] was 100%. The pest or weed control at 20 g/ha [14] was 90%, the pest or weed control at 80 g/ha [14] was 90% and the pest or weed control at 80 g/ha [15] was 100%. For the same molecule, the pest or weed control at 320 g/ha [15] was 100%, the pest or weed control at 20 g/ha [16] was 90% and the pest or weed control at 80 g/ha [16] was 90%. For the same molecule, the pest or weed control at 80 g/ha [17] was 100%, the pest or weed control at 320 g/ha [17] was 100% and the pest or weed control at 80 g/ha [18] was 100%. It also gave a pest or weed control at 320 g/ha [18] of 100%, a pest or weed control at 320 g/ha [19] of 90% and a pest or weed control at 80 g/ha [20] of 90%. It also gave a pest or weed control at 320 g/ha [20] of 100%, a pest or weed control at 20 g/ha [21] of 80% and a pest or weed control at 80 g/ha [21] of 90%. For the same molecule, the pest or weed control at 20 g/ha ([22]; dosage 20 g/ha) was 90%, the pest or weed control at 80 g/ha [22] was 90% and the pest or weed control at 80 g/ha [23] was 80%.
